From US10383948B2, “Anti-cMet antibody drug conjugates and methods for their use” (AbbVie Inc., priority 2016, dated 2019)

Tested on: cMet+ NSCLC
Assay: Phase 1 monotherapy in cMet+ NSCLC, best response
Assay type: in vivo, human
Method: A dose of 2.7 mg/kg was chosen for dose-expansion based primarily on safety and tolerability. For enrollment in this phase of the study, NSCLC subjects were screened for cMet overexpression using an IHC assay utilizing the CONFIRM anti-total cMet (SP44) Rabbit Monoclonal Primary Antibody kit purchased from Ventana (REF #790-4430). Tissue samples were scored by determining the percentages of target tissue cells staining at various intensity levels of low to high, i.e. IHC score of 0, 1+, 2+ or 3+ or an H-score of 0 to 149, 150-224, or 225-300. The scoring can be done either manually or via the aid of a computer. Details of the IHC assay and scoring are described in Example 17.

## ABBV-399: ADC comprised of the cMet targeting antibody ABT-700 conjugated to MMAE through a valine citrulline (vc) linker
2/16 treated patients
  radiographic progressive disease: 12.5%
3/16 treated patients
  partial responses: 19%
6/16 treated patients
  stable disease: 37.5%
